Consider 8 compounds from article PMC2096529 (Purinergic Signalling, 2005).

Some targets named below: human P2Y6 receptor (Homo sapiens, UniProt Q15077); human P2Y4 receptor (Homo sapiens, UniProt P51582); human P2Y1 receptor (Homo sapiens, UniProt P47900); human P2Y2 receptor (Homo sapiens, UniProt P41231).
Holding throughout (assay): Fluo-3 calcium mobilization, FLIPR, […]1 cells
Holding throughout (format): cell-based

Chain of human P2Y2 receptor (P41231 whole entry): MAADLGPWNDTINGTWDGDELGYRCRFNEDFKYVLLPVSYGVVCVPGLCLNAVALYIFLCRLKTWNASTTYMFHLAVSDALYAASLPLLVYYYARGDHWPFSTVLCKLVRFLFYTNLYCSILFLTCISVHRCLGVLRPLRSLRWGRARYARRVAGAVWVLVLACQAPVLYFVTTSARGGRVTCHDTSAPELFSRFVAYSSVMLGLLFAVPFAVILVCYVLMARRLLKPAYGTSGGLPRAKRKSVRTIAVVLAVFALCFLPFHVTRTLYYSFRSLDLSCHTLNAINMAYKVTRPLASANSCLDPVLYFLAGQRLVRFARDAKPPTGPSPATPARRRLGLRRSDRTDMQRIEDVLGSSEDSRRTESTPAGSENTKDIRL
Chain of human P2Y1 receptor (P47900 whole entry): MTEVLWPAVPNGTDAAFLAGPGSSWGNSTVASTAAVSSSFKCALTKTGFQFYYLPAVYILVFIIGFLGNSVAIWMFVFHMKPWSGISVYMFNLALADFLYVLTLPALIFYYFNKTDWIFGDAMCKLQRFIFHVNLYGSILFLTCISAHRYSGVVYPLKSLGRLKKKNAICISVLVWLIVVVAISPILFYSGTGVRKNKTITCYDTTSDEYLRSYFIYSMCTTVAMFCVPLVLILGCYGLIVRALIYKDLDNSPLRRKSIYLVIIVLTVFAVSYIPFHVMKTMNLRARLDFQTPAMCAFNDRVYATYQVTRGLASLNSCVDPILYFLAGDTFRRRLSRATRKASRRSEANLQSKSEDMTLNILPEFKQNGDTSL
Chain of human P2Y6 receptor (Q15077 whole entry): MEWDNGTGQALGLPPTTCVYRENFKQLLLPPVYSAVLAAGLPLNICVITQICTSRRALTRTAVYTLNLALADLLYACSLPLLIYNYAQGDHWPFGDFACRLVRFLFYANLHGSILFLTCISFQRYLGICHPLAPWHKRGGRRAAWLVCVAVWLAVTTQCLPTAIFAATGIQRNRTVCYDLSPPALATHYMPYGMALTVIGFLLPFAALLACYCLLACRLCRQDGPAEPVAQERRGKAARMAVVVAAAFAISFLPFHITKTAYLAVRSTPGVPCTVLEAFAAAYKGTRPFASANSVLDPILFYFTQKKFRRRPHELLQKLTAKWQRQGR
Chain of human P2Y4 receptor (P51582 whole entry): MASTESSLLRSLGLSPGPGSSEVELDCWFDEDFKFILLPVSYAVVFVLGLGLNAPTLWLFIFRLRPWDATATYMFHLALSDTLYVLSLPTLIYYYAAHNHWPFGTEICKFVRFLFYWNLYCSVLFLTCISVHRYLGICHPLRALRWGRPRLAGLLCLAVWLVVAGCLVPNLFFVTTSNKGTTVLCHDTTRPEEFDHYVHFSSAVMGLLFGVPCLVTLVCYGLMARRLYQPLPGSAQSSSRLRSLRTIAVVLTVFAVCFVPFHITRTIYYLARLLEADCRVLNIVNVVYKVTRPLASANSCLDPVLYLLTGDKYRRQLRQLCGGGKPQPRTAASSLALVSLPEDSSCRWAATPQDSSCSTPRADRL

Take `Nc1nc2c(ncn2[C@@H]2O[C@H](COP(=O)(O)OP(=O)(O)OC[C@H]3O[C@@H](n4cnc5c(N)ncnc54)[C@H](O)[C@@H]3O)[C@@H](O)[C@H]2O)c(=O)[nH]1` [compound 16, AP2G]: the concentration for a half-maximal effect (EC50) at human P2Y6 receptor stood at 9.14 µM; on human P2Y4 receptor, 1.5 µM; on human P2Y1 receptor, 26.5 µM; at human P2Y2 receptor, 1.3 µM.

In the case of `O=c1[nH]c(=S)ccn1[C@@H]1O[C@H](COP(=O)(O)OP(=O)(O)OC[C@H]2O[C@@H](n3ccc(=S)[nH]c3=O)[C@H](O)[C@@H]2O)[C@@H](O)[C@H]1O` [compound 23, 4-thioUP24-thioU], the concentration for a half-maximal effect (EC50) was 25.2 µM on human P2Y6 receptor, 33.9 µM on human P2Y4 receptor, over 10 µM at human P2Y1 receptor and 29.1 µM on human P2Y2 receptor.

On to `Nc1nc2c(ncn2[C@@H]2O[C@H](COP(=O)(O)OP(=O)(O)OP(=O)(O)OC[C@H]3O[C@@H](n4cnc5c(N)ncnc54)[C@H](O)[C@@H]3O)[C@@H](O)[C@H]2O)c(=O)[nH]1` [compound 28, AP3G], for which the EC50 on human P2Y6 receptor was found to be 1.53 µM; on human P2Y4 receptor, 0.52 µM; at human P2Y1 receptor, 0.12 µM; at human P2Y2 receptor, 0.23 µM.

Consider `Nc1ncnc2c1ncn2[C@@H]1O[C@H](COP(=O)(O)OP(=O)(O)OP(=O)(O)OC[C@H]2O[C@@H](n3cnc4c(=O)[nH]cnc43)[C@H](O)[C@@H]2O)[C@@H](O)[C@H]1O` [compound 29, AP3I], for which the EC50 on human P2Y6 receptor stood at 1.06 µM; on human P2Y4 receptor it was 2.55 µM; on human P2Y1 receptor, 0.11 µM; on human P2Y2 receptor it was 1.2 µM.

Take `Nc1ccn([C@@H]2O[C@H](COP(=O)(O)OP(=O)(O)OP(=O)(O)OC[C@H]3O[C@@H](n4ccc(=O)[nH]c4=O)C[C@@H]3O)[C@@H](O)[C@H]2O)c(=O)n1` [compound 36, CP3dU]: the EC50 worked out at 0.81 µM at human P2Y6 receptor, 40 µM on human P2Y4 receptor, 17 µM on human P2Y1 receptor and 3.1 µM at human P2Y2 receptor.

For `Nc1ncnc2c1ncn2[C@@H]1O[C@H](COP(=O)(O)OP(=O)(O)OP(=O)(O)OP(=O)(O)OC[C@H]2O[C@@H](n3ccc(=O)[nH]c3=O)[C@H](O)[C@@H]2O)[C@@H](O)[C@H]1O` [compound 40, AP4U], the 50% effective concentration (EC50) stood at 1.45 µM on human P2Y4 receptor, 4.75 µM at human P2Y1 receptor and 0.35 µM on human P2Y2 receptor.

On to `Nc1ccn([C@@H]2O[C@H](COP(=O)(O)OP(=O)(O)OP(=O)(O)OP(=O)(O)OC[C@H]3O[C@@H](n4ccc(=O)[nH]c4=O)[C@H](O)[C@@H]3O)[C@@H](O)[C@@H]2O)c(=O)n1` [compound 50, UP4araC], for which the concentration giving a half-maximal response (EC50) at human P2Y6 receptor stood at 3.32 µM; on human P2Y4 receptor, 0.22 µM; at human P2Y1 receptor, 6.13 µM; on human P2Y2 receptor, 0.59 µM.

`Nc1ncnc2c1ncn2[C@H]1C[C@H](O)[C@@H](COP(=O)(O)OP(=O)(O)OP(=O)(O)OP(=O)(O)OC[C@H]2O[C@@H](n3ccc(=O)[nH]c3=O)[C@H](O)[C@@H]2O)O1` [compound 52, UP4dA]: the half-maximal effective concentration (EC50) on human P2Y6 receptor came to 4.2 µM; on human P2Y4 receptor, 0.07 µM; on human P2Y1 receptor it was 3.49 µM; on human P2Y2 receptor, 0.05 µM.
